Reference: US20170037028A1 (BAYER PHARMA AKTIENGESELLSCHAFT, priority 2013, published 2017)

What follows are compounds tested against T1, GLUT1 (Homo sapiens, UniProt P11166) (assay: Indirect measurement of GLUT1 activity by quantification of intracellular ATP levels (glucose induced ATP increase)). Details: DLD1 cells; 0.1 mM glucose, 1 μM Rotenone, 15 min; CellTiter-Glo ATP readout; IC50 values standardized to cytochalasin B IC50 values; read-out: IC50 regarding glucose induced ATP increase (GLUT1 inhibition).
T1 sequence (P11166 1-492): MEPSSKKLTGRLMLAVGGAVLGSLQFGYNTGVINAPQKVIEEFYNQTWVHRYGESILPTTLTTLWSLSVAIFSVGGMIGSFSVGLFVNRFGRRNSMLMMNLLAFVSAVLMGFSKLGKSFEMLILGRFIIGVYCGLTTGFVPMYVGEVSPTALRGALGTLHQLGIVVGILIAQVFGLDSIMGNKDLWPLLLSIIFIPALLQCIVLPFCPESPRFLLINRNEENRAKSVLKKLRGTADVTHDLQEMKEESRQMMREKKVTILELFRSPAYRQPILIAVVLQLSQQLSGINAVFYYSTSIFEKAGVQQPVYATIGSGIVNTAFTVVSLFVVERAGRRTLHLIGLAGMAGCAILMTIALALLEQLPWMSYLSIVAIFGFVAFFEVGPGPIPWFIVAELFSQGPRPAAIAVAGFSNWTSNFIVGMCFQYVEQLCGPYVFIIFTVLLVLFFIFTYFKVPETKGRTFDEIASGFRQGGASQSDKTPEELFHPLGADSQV
Type: cell-based
Parameters: endogenous in cells; host or cells: DLD1 or CHO-K1
Method in brief: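 DLD1 or CHO-K1 cells were starved overnight in glucose-free medium with 1% FCS, then combined with an oxidative phosphorylation inhibitor. GLUT1 activity was read as glucose-induced ATP increase, GLUT2 as fructose-induced. Intracellular ATP was quantified by CellTiter-Glo luminescence.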

Compared with `Cc1c(NC(=O)c2cc(C(N)=O)nc3cc(F)cc(F)c23)c(C(F)(F)F)nn1Cc1ccc(C#N)cc1` [Example 243, N^4-[1-(4-cyanobenzyl)-5-methyl-3-(trifluoromethyl)-1H-pyrazol-4-yl]-5,7-difluoroquinoline-2,4-dicarboxamide], `Cc1c(NC(=O)c2cc(C(N)=O)nc3cc(F)ccc23)c(C(F)(F)F)nn1Cc1cccc(C#N)c1` [Example 1578] is 50-fold higher in IC50: 0.5 nM for the first, 25 nM for the second.

Same assay, conditions: read-out: IC50 regarding glucose induced ATP increase (GLUT1 inhibition)

First: Cc1nn(Cc2ccc(F)cc2)c(C)c1NC(=O)c1c2c(nc3ccccc13)CCC2 [Example 1249]
Second: Cc1nn(Cc2ccc(F)cc2)c(C)c1NC(=O)c1cc(C#N)nc2ccccc12 [Example 78, 2-cyano-N-[1-(4-fluorobenzyl)-3,5-dimethyl-1H-pyrazol-4-yl]quinoline-4-carboxamide]
The IC50 of the first is 7.5-fold higher: 1670 nM for the first, 223 nM for the second.

First: CNC(=O)c1ccc(Cn2nc(C)c(NC(=O)c3cc(C(F)(F)F)nc4ccc(Br)cc34)c2C)cc1 [Example 135, 6-bromo-N-{3,5-dimethyl-1-[4-(methylcarbamoyl)benzyl]-1H-pyrazol-4-yl}-2-(trifluoromethyl)quinoline-4-carboxamide]
Second: Cc1ccc(Cn2nc(C)c(NC(=O)c3cc(C(F)(F)F)nc4ccc(Br)cc34)c2C)cc1 [Example 54, 6-bromo-N-[3,5-dimethyl-1-(4-methylbenzyl)-1H-pyrazol-4-yl]-2-(trifluoromethyl)quinoline-4-carboxamide]
The IC50 of the first is 7.2-fold lower: 8.1 nM for the first, 58.3 nM for the second.

Going from `Cc1nn(Cc2ccc(C(=O)NCc3ccccn3)cc2)c(C)c1NC(=O)c1cc(C(F)(F)F)nc2ccc(Br)cc12` [Example 1068] to `Cc1nn(Cc2ccc(C(=O)Nc3cccnc3)cc2)c(C)c1NC(=O)c1cc(C(F)(F)F)nc2ccc(Br)cc12` [Example 1045], the IC50 falls from 19.5 nM to 9.4 nM (2.1-fold).

First: Cc1c(NC(=O)c2cc(C(N)=O)nc3cc(F)ccc23)c(C(F)(F)F)nn1Cc1ccc(F)cc1C#N [Example 1658]
Second: Cc1c(NC(=O)c2cc(C(N)=O)nc3cc(F)ccc23)c(C(F)(F)F)nn1Cc1ccc(C#N)cc1O [Example 1668]
The IC50 of the first is 7.4-fold lower: 3.2 nM for the first, 23.6 nM for the second.

`COc1ccc2nc(O)cc(C(=O)Nc3c(C)nn(Cc4ccc(F)cc4)c3C)c2c1` [Example 75, N-[1-(4-fluorobenzyl)-3,5-dimethyl-1H-pyrazol-4-yl]-2-hydroxy-6-methoxyquinoline-4-carboxamide] and `COc1ccc2nccc(C(=O)Nc3c(C)nn(Cc4ccc(F)cc4)c3C)c2c1` [Example 192, N-[1-(4-fluorobenzyl)-3,5-dimethyl-1H-pyrazol-4-yl]-6-methoxyquinoline-4-carboxamide] are within 1.5-fold of each other in IC50: 182 nM for the first, 177 nM for the second.

Going from `Cc1nn(Cc2ccc(C#N)nc2)c(C)c1NC(=O)c1cc(C(N)=O)nc2cc(F)ccc12` [Example 292, N^4-{1-[(6-cyanopyridin-3-yl)methyl]-3,5-dimethyl-1H-pyrazol-4-yl}-7-fluoroquinoline-2,4-dicarboxamide] to `Cc1nn(Cc2ccc(C#N)nc2)c(C)c1NC(=O)c1cc(C(N)=O)nc2ccc(F)cc12` [Example 1086], the IC50 rises from 17 nM to 31.6 nM (1.9-fold). The first is the more potent here.

Compared with `COc1cc(C(=O)Nc2c(C)nn(Cc3cc(F)ccc3F)c2C)c2ccccc2n1` [Example 1304], `Cc1nn(Cc2ccc(F)cc2)c(C)c1NC(=O)c1cc(C(=O)N(C)C)nc2ccccc12` [Example 209, N^4-[1-(4-fluorobenzyl)-3,5-dimethyl-1H-pyrazol-4-yl]-N^2,N^2-dimethylquinoline-2,4-dicarboxamide] is 14-fold lower in IC50: 11100 nM for the first, 817 nM for the second.

First: Cc1ccccc1Cn1nc(C(F)(F)F)c(NC(=O)c2cc(C(N)=O)nc3cc(F)ccc23)c1C [Example 1495]
Second: Cc1c(NC(=O)c2cc(C(N)=O)nc3cc(F)ccc23)c(C(F)(F)F)nn1Cc1ccc(C2CCC2)cc1 [Example 1616]
The IC50 of the first is 9.2-fold lower: 7.3 nM for the first, 67.4 nM for the second.

First: Cc1c(NC(=O)c2cc(S(C)=NC#N)nc3ccccc23)c(C(F)(F)F)nn1Cc1ccc(C#N)cc1 (racemic) [Example 385, (±)-N-[1-(4-cyanobenzyl)-5-methyl-3-(trifluoromethyl)-1H-pyrazol-4-yl]-2-(N-cyano-S-methylsulfinimidoyl)quinoline-4-carboxamide]
Second: Cc1c(NC(=O)c2cc(S(C)(=N)=O)nc3ccccc23)c(C(F)(F)F)nn1Cc1ccc(C#N)cc1 (racemic) [Example 387, (±)-N-[1-(4-cyanobenzyl)-5-methyl-3-(trifluoromethyl)-1H-pyrazol-4-yl]-2-(S-methylsulfonimidoyl)quinoline-4-carboxamide]
The IC50 of the first is 1.8-fold lower: 81.7 nM for the first, 146 nM for the second. The first is the more potent here.

Going from `Cc1c(NC(=O)c2cc(C(N)=O)nc3cccc(F)c23)c(C(F)(F)F)nn1Cc1cccc(C(N)=O)c1` [Example 1602] to `CC(=O)c1ccc(Cn2nc(C(F)(F)F)c(NC(=O)c3cc(C(N)=O)nc4cccc(F)c34)c2C)cc1` [Example 1606], the IC50 falls from 29.3 nM to 2.4 nM (12-fold). The second is the more potent here.

First: COCc1noc(Cn2nc(C)c(NC(=O)c3cc(C(N)=O)nc4ccccc34)c2C)n1 [Example 1508]
Second: Cc1nn(Cc2cc(C(C)C)no2)c(C)c1NC(=O)c1cc(C(N)=O)nc2ccccc12 [Example 1562]
The IC50 of the first is 1.9-fold higher: 107 nM for the first, 55.9 nM for the second. The second is the more potent here.

First: CCc1nn(Cc2ccc(C#N)cc2)c(CC)c1NC(=O)c1cc(C(N)=O)nc2cc(F)ccc12 [Example 312, N^4-[1-(4-cyanobenzyl)-3,5-diethyl-1H-pyrazol-4-yl]-7-fluoroquinoline-2,4-dicarboxamide]
Second: CCc1c(NC(=O)c2cc(C(N)=O)nc3cccc(F)c23)c(C(F)(F)F)nn1Cc1ccc(C#N)cc1 [Example 316, N^4-[1-(4-cyanobenzyl)-5-ethyl-3-(trifluoromethyl)-1H-pyrazol-4-yl]-5-fluoroquinoline-2,4-dicarboxamide]
The IC50 of the first is 1.8-fold higher: 35.5 nM for the first, 19.8 nM for the second. The second is the more potent here.

`C=Cc1ccc(Cn2nc(C)c(NC(=O)c3cc(C)nc4ccc(C)cc34)c2C)cc1` [Example 1097] and `Cc1ccc2nc(C)cc(C(=O)Nc3c(C)nn(Cc4ccc(C#N)cc4)c3C)c2c1` [Example 44, N-[1-(4-cyanobenzyl)-3,5-dimethyl-1H-pyrazol-4-yl]-2,6-dimethylquinoline-4-carboxamide] are within 1.5-fold of each other in IC50: 41.3 nM for the first, 32.1 nM for the second.

Going from `CCOC(=O)c1cc(Cn2nc(C)c(NC(=O)c3cc(C(N)=O)nc4cc(F)ccc34)c2C)on1` [Example 1670] to `COc1ccc(Cn2nc(C)c(NC(=O)c3cc(C(N)=O)nc4cc(F)ccc34)c2C)cc1` [Example 275, 7-fluoro-N^4-[1-(4-methoxybenzyl)-3,5-dimethyl-1H-pyrazol-4-yl]quinoline-2,4-dicarboxamide], the IC50 falls from 17.1 nM to 1.1 nM (16-fold).

Going from `COc1cc(C(=O)Nc2c(C)nn(Cc3csc(N4CCOCC4)n3)c2C)c2ccccc2n1` [Example 1530] to `Cc1c(NC(=O)c2cc(C(N)=O)nc3ccccc23)c(C(F)(F)F)nn1Cc1cc(CN2CCOCC2)on1` [Example 1702], the IC50 falls from 893 nM to 140 nM (6.4-fold).

`Cc1ccc2nc(C)cc(C(=O)Nc3c(C)nn(Cc4ccccc4)c3C)c2c1` [Example 92, N-(1-benzyl-3,5-dimethyl-1H-pyrazol-4-yl)-2,6-dimethylquinoline-4-carboxamide] and `Cc1nn(Cc2cccc(S(C)(=O)=O)c2)c(C)c1NC(=O)c1cc(C(N)=O)nc2cc(F)ccc12` [Example 1640] are within 1.5-fold of each other in IC50: 292 nM for the first, 277 nM for the second.

Compared with `Cc1nn(Cc2ccc(C(=O)NCCN3CC4(CCS4(=O)=O)C3)cc2)c(C)c1NC(=O)c1cc(C(F)(F)F)nc2ccc(Br)cc12` [Example 1049], `CCOC(=O)c1nn(Cc2ccc(F)cc2)c(C)c1NC(=O)c1cc(C(F)(F)F)nc2ccc(Br)cc12` [Example 1225] is 78-fold higher in IC50: 11.7 nM for the first, 914 nM for the second.

Compared with `Cc1nn(Cc2ccc(F)c(F)c2)c(C)c1NC(=O)c1cc(C(F)(F)F)nc2ccc(Br)cc12` [Example 47, 6-bromo-N-[1-(3,4-difluorobenzyl)-3,5-dimethyl-1H-pyrazol-4-yl]-2-(trifluoromethyl)quinoline-4-carboxamide], `Cc1nn(Cc2cc(F)cc(F)c2)c(C)c1NC(=O)c1cc(C(F)(F)F)nc2ccc(Br)cc12` [Example 1256] is 46-fold higher in IC50: 44.4 nM for the first, 2040 nM for the second. The first is the more potent here.

`Cc1nn(Cc2ccc(F)c(F)c2)c(C)c1NC(=O)c1cc(C2CCC2)nc2ccc(Br)cc12` [Example 144, 6-bromo-2-cyclobutyl-N-[1-(3,4-difluorobenzyl)-3,5-dimethyl-1H-pyrazol-4-yl]quinoline-4-carboxamide] and `Cc1nn(Cc2ccc(C#N)nc2)c(C)c1NC(=O)c1cc(C(F)(F)F)nc2ccc(Br)cc12` [Example 147, 6-bromo-N-{1-[(6-cyanopyridin-3-yl)methyl]-3,5-dimethyl-1H-pyrazol-4-yl}-2-(trifluoromethyl)quinoline-4-carboxamide] are within 1.5-fold of each other in IC50: 5.7 nM for the first, 8.2 nM for the second.

First: CNC(=O)N1CCC(Cn2nc(C)c(NC(=O)c3cc(C(F)(F)F)nc4ccc(Br)cc34)c2C)CC1 [Example 1111]
Second: Cc1nn(Cc2cccc(F)c2)c(C)c1NC(=O)c1cc(C(F)(F)F)nc2c(Cl)cc(Cl)cc12 [Example 104, 6,8-dichloro-N-[1-(3-fluorobenzyl)-3,5-dimethyl-1H-pyrazol-4-yl]-2-(trifluoromethyl)quinoline-4-carboxamide]
The IC50 of the first is 9.1-fold lower: 56.8 nM for the first, 519 nM for the second. The first is the more potent here.

First: Cc1nn(Cc2ccc(C(=O)NCCO)cn2)c(C)c1NC(=O)c1cc(C(N)=O)nc2ccc(F)cc12 [Example 1246]
Second: Cc1c(NC(=O)c2cc(C(N)=O)nc3cc(F)ccc23)c(C(F)(F)F)nn1Cc1ccc(OC(F)(F)F)cc1 [Example 1466]
The IC50 of the first is 310-fold higher: 1660 nM for the first, 5.4 nM for the second. The second is the more potent here.
